Test results from patent publication US8535740B2, “Compositions from Nigella sativa” (priority 2002, dated 2013).
Converted amounts (≈) assume the structure as drawn.

System: iNOS-mediated NO biosynthesis in C2C12 myocytes
Test: LTI cytokine-stimulated NO biosynthesis in C2C12 myocytes
Format: cell-based, murine
Details: Mus musculus, value computed on the basis of TQ content, LPS/TNFα/IFγ stimulation 20 hours, (95% confidence interval), read-out: Median Inhibitory Concentration for iNOS-mediated NO biosynthesis, C2C12 Myocytes
Description: Mouse C2C12 myoblasts (American Type Culture Collection, Manassas, Va.) were maintained in Dulbecco's modified Eagle's medium (DMEM) supplemented with 10% fetal calf serum (FCS), 50 units/ml penicillin and 50 μg/ml streptomycin. As cells reached confluence, the medium was switched to the differentiation medium containing DMEM and 2% horse serum. Medium was changed every other day. […] At the end of the treatment period, media were sampled for determination of NO. […] Determination of nitrite in waters by microplate fluorescence spectroscopy and HPLC with fluorescence detection. Anal Chem. Aug. 1 1999; 71(15):3003-3007). In a separate, black-walled, 96-well, microtiter plate, a 7 μL aliquot of a 4.8×10^-4 mol NBDM/L solution was added to 200 μL of the supernatant media followed by the addition of 15 μL of concentrated phosphoric acid. After a reaction time of 30 minutes at ambient temperature, the fluorescence was read with 485 nm excitation filter and a 530 nm emission filter in a Packard Fluorocount spectrofluorometer (Model #BF10000, Meridan, Conn.). […] Quantitative analysis of dose-effect relationships: the combined effects of multiple drugs or enzyme inhibitors.

**Q.** Which IC50 does the source give for `CC1=CC(=O)C(C(C)C)=CC1=O` [Thymoquinone (Sigma), thymoquinone] here?
**A.** Its IC50 is 1.9 µg/mL (≈ 11.6 µM).
